In general, EC50 refers to the concentration that produces a half-maximal response. For orientation: inhibition means the change of the read-out against control, counted positive when it falls.

Read-outs that look alike come from different tables or passages of the source.

The values that follow come from US12391685B2, “Inhibitors of RNA-guided nuclease target binding and uses thereof” (THE BROAD INSTITUTE, INC., priority 2018, dated 2025).

Data set [1] concerns U2OS.eGFP.PEST cells and HEK293T cells. The experiment in a line: Cell viability (ATP content). The conditions noted are these: 5-20 μM, 24 h.
The target of data set [2] is T1, dCas9-based transcription-activation complex (Streptococcus pyogenes serotype M1, UniProt Q99ZW2, D10A, form not given).
T1 construct: "dSpCas9|Feng Zhang lab|NA"; The MS2-p65-HSF1(-GFP) effector is a separate chain recruited through MS2 aptamers in the sgRNA
Briefly: dCas9-based transcription activation of HBG1 in HEK293FT cells (RT-qPCR). It is filed as cell-based, S. pyogenes. Conditions: for inhibition of transcriptional activation: 20 μM; for EC50: read-out: EC50, inhibition of the transcription activation complex. On the procedure:
Transcription activation experiments and quantitative RT-PCR analyses. HEK293FT cells were maintained in high glucose DMEM with glutamax (Life Technologies) and supplemented with 10% FBS (Life Technologies), 1% penicillin-streptomycin (Life Technologies) and 1 mM sodium pyruvate (Life Technologies). For transcription activation experiments, 20,000 cells/well were plated in a poly D-lysine-coated 96-well plate. The cells were transiently transfected with a 1:1:1 mass ratio of the dCas9 plasmid, MS2-P65-HSF1 effector plasmid and the sgRNA plasmid targeting the HBG1 gene or an RFP control plasmid. A total of 0.3 μg plasmid DNA was transfected using Lipofectamine 2000 (Life Technologies) according to manufacturer's protocol. Immediately after transfection, the cells were treated with an appropriate dose of the small-molecule inhibitors. A DMSO solution of compound (20 mM) was resuspended in the 10% FBS containing growth media and thoroughly mixedbefore adding to the cells. After 48 h the cells were lysed and 5 μL of the cell lysate was used to perform reverse transcription using the RevertAid RT Reverse Transcription Kit (Thermo Fischer Scientific) as described by Joung J. et al. qPCR reactions were performed to quantify RNA expression using the TaqMan probes (Life Technologies, HBG1/HBG2: Hs00361131_g1, ACTB: Hs01060665_g1) and TaqMan Fast Advanced Master Mix (Life Technologies) in 5 μL multiplexed reactions and 384-well format using the LightCycler 480 Instrument II (Roche). For each sample, four technical replicates were performed. Data were analyzed using the LightCycler 480 software (Roche) by the ΔΔCt method: Ct values for the gene of interest (HBG1) were normalized to Ct values for the housekeeping gene (ACTB), and fold-changes in the expression level of gene of interest were normalized to RFP-transfected control. The data is reported as mean±S.E.M. for technical replicates.

The target in data set [3] is T2, SpCas9 (Streptococcus pyogenes serotype M1, UniProt Q99ZW2). The experiment in a line: NHEJ assay in HEK293T cells. It is filed as cell-based, S. pyogenes. The conditions noted are these: 2-10 μM, 24 h. The protocol:
NHEJ assay. Approximately 8,000 cells/well were seeded in a 96-well plate 24 h before transient transfection with a total 100 ng of DN66 (mCherry—TAG—GFP reporter) and DN78 (SpCas9 and gRNA) plasmids (1:1) using Lipofectamine 2000 (Life Technologies) (Nguyen et al., 2016b). Transfected cells were incubated with the indicated amount of small molecule or DMSO for 24 h. Cells were then fixed using 4% paraformaldehyde and imaged with the HCS NuclearMask™ Blue Stain (Life Technologies) as the nuclear counter-staining agent. Imaging was performed with an ImageXpress Micro automated microscope (Molecular Devices) at 4× magnification under three excitation channels (blue, green and red) with 9 acquisition sites per well. Images were analyzed in the MetaXpress software to determine the % NHEJ and the data were plotted using GraphPad Prism 6. The Z′-value was calculated following the formula: Z′=1−(3(σ1+σ2))/(|μ1−μ2|) where σ1 and σ2 are the standard deviations of DN66 transfected wells and (DN66+DN78) transfected wells respectively. μ1 and μ2 are the mean % GFP cell population for DN66 transfected wells and (DN66+DN78) transfected wells respectively.

For data set [4], the target named is T2, SpCas9. Briefly: mKate2-disruption assay in HEK293T cells. The conditions noted are these: 1.5-5 μM, 24 h. The data set is classed as cell-based, S. pyogenes. The protocol:
mKate2-disruption assay. Approximately 8,000 cells/well were seeded in a 96-well plate 24 h before transient transfection with 100 ng of either CgRNA (Addgene Plasmid #64955) or T1gRNA (Addgene Plasmid #62717) plasmids using Lipofectamine 2000 (Life Technologies). Transfected cells were allowed to grow in the indicated amount of small molecule or DMSO for 24 h. Cells were then fixed using 4% paraformaldehyde and imaged with the HCS NuclearMask™ Blue Stain (Life Technologies) as the nuclear counter-staining agent. Imaging was performed with an ImageXpress Micro automated microscope (Molecular Devices) at 20× magnification under two excitation channels (blue and red) with 9 acquisition sites per well. Images were analyzed using the MetaXpress software to determine the % mKate2 positive cells and data was plotted using GraphPad Prism 6. The Z′-value was calculated following the formula: Z′=1−(3(σ1+σ2))/(|μ1−μ2|) where σ1 and σ2 are the standard deviations of CgRNA transfected wells and T1gRNA transfected wells respectively. μ1 and μ2 are the mean % RFP^+ cell population for CgRNA transfected wells and T1gRNA transfected wells, respectively.

In data set [5] the target is T2, SpCas9. Briefly: eGFP-disruption assay in U2OS.eGFP.PEST cells. It is filed as cell-based, S. pyogenes. Also on record: host or cells: U2OS.eGFP.PEST. Conditions: for inhibition at 15 µM / Average Inhibition activity / Inhibition activity Rep 1 / Inhibition activity Rep 2: screen of structural analogs of BRD7087, 15 μM compound. On the procedure:
SpCas9 nuclease activity in eGFP-disruption assay. Approximately 200,000 U2OS.eGFP-PEST cells were nucleofected following two different methods either by nucleofecting plasmids or RNP using the SE Cell Line 4D-Nucleofector™ X Kit (Lonza) according to the manufacturer's protocol. In the plasmid nucleofection method, cells were nucleofected either with 440 ng of SpCas9 (Addgene Plasmid #43861) or 400 ng of SpCas9 along with 40 ng of sgRNA (pFYF1320 eGFP Site #1, Addgene Plasmid #47511). Cells nucleofected only with SpCas9-expressing plasmid were used as the transfection control. In the RNP nucleofection method, either […] SpCas9 or 20 pmol preformed SpCas9:gRNA (eGFP Site #1) complex were nucleofected. Approximately 20,000 transfected cells/well were plated in 4 replicates in a 96-well plate (Corning® 3904). Cells were incubated with the indicated amount of compound or DMSO for 24 h post transfection. A DMSO solution of compound (20 mM) was resuspended in the 10% FBS containing growth media and thoroughly mixed before adding to the cells. Cells were then fixed using 4% paraformaldehyde and imaged with the HCS NuclearMask™ Blue Stain (Life Technologies) as the nuclear counter-staining agent. Imaging was performed with an ImageXpress Micro automated microscope (Molecular Devices) at 10× magnification under three excitation channels (blue, green and red) acquiring nine sites per well. Images were analyzed using MetaXpress software and data were plotted using GraphPad Prism 6.
The Z′-value was calculated using the equation (1), where σ1 and σ2 are the standard deviations of DMSO control and SpCas9:gRNA control respectively. μ1 and μ2 are the mean % GFP^− cell population for DMSO control and SpCas9:gRNA control, respectively.

The target of data set [6] is T2, SpCas9. Briefly: HiBiT assay in U2OS.eGFP.PEST cells. It is filed as cell-based, S. pyogenes. On the set-up: host or cells: U2OS.eGFP.PEST. The conditions noted are these: 24 h. The protocol:
HiBiT assay. For SpCas9 expression in cells, the previously described JDS246 plasmid was used (Kleinstiver et al., 2015b). ssODN donor DNA template with the HiBiT tag was purchased as single-stranded Ultramer DNA Oligonucleotides (IDT) and resuspended to 40 μM in nuclease-free water. For the assay, 2×10^5 cells were co-transfected with 300 ng Cas9 plasmid, 75 ng sgRNA plasmid and 100 ng ssODN using the DN-100 program of Lonza 4D nucleofector according to the manufacturer's protocols. For negative controls, either the sgRNA plasmid or the ssODN was omitted. 20,000 transfected cells were plated in each well of a 96-well plate (Corning 3904). Immediately after transfection, cells were treated with varying concentrations of BRD0539 or BRD3433 and incubated at 37° C. with 5% CO2. 24 h after transfection, the cells were washed once with PBS and kept in 80 μL PBS. An equal volume of the Nano-Glo HiBiT Lytic Reagent (Promega N3030), consisting of Nano-Glo HiBiT Lytic Buffer, Nano-Glo HiBiT Lytic Substrate, and LgBiT Protein, was added according to the manufacturer's protocol, and cells were incubated for 10 min at ambient temperature with shaking at 600 rpm (Schwinn et al., 2018a). The cells were then incubated for an additional 10 min without shaking at room temperature to allow equilibration of the HiBiT and LgBiT in the lysate. The lysate was then transferred to a white plate (Corning 3990) and luminescence was measured using an Envision plate reader (Perkin-Elmer) with 1 s of integration time.
For orientation: HiBiT is a short tag that completes a luciferase, so light tracks the accessible tagged protein.

The mark [7] stands for this setting: 24 h, U2OS.eGFP.PEST cells, read-out: Average Inhibition activity.
The mark [8] stands for this setting: 24 h, U2OS.eGFP.PEST cells, read-out: Inhibition activity Rep 1.
Where [9] appears, read: 24 h, U2OS.eGFP.PEST cells, read-out: Inhibition activity Rep 2.

T2 sequence (Q99ZW2 whole entry): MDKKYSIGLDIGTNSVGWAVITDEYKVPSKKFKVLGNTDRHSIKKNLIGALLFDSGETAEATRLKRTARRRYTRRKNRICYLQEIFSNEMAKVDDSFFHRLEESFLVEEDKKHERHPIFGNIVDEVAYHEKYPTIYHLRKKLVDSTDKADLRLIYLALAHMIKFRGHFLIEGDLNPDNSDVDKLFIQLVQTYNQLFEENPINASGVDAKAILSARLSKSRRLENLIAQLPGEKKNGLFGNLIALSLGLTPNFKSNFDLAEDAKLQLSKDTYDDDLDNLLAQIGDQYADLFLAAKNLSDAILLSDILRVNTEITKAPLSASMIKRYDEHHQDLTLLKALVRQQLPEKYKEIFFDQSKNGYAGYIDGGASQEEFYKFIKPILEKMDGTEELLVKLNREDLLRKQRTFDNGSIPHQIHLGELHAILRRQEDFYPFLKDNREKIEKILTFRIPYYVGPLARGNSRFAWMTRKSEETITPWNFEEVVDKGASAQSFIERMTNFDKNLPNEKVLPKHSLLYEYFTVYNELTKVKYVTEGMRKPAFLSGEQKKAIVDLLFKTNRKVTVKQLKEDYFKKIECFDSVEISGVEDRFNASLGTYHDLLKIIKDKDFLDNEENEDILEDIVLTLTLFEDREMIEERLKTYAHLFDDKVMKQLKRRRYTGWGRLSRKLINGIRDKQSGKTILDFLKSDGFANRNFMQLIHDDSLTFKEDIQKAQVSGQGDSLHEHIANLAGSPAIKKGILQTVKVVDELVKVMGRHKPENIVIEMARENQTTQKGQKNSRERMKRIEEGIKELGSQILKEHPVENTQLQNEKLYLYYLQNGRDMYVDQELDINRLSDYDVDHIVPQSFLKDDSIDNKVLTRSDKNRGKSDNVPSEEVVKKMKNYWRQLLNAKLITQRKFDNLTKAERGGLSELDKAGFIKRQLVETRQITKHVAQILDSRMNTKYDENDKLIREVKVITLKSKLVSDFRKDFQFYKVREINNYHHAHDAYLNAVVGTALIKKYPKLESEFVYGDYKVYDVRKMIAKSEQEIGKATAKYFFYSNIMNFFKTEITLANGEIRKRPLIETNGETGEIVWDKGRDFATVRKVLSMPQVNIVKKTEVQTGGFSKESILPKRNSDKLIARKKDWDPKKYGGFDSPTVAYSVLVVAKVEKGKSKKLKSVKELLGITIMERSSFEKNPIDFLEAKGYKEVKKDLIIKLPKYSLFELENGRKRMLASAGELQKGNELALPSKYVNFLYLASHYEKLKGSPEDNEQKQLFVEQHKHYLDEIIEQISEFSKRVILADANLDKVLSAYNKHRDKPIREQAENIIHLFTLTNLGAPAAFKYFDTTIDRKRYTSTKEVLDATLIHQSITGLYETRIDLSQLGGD

As for `COc1ccc(-c2ccc3c(c2)[C@H]2[C@H](CCN2Cc2ccncc2)[C@@H](CO)N3)cc1` [BRD5779, ((3aR,4S,9bR)-8-(4-Methoxyphenyl)-1-(pyridin-4-ylmethyl)-2,3,3a,4,5,9b-hexahydro-1H-pyrrolo[3,2-c]quinolin-4-yl) methanol], the “cytotoxicity (in words)” value in data set [1] was “non-cytotoxic”. Further, the “inhibition of transcriptional activation” value in data set [2] is recorded as ~60%. Further, in data set [3], the “inhibition of SpCas9 in the NHEJ assay (in words)” value is recorded as “dose-dependent inhibition”. Further, the “inhibition of SpCas9 in the mKate2 disruption assay (in words)” value in data set [4] is recorded as “dose-dependent inhibition”. In addition, the “inhibition of SpCas9 in the eGFP-disruption assay (in words)” value in data set [5] (U2OS.eGFP.PEST cells) was “dose-dependent inhibition”.
As for `CN1c2ccc(C#Cc3cccnc3)cc2[C@@H]2[C@@H](CCN2C(=O)C2CCCCC2)[C@H]1CO` [BRD20322, Cyclohexyl((3aR,4S,9bS)-4-(hydroxymethyl)-5-methyl-8-(pyridin-3-ylethynyl)-2,3,3a,4,5,9b-hexahydro-1H-pyrrolo[3,2-c]quinolin-1-yl) methanone], in data set [2], the “inhibition of transcriptional activation” value turned out to be 89%. The EC50 in data set [2] was determined as 12.2 µM. Further, the results for the inhibition at 15 µM in data set [5] (setting [7]), in data set [5] (setting [8]) and in data set [5] (setting [9]) were 53.5%, 47.6% and 59.4%, respectively.
Consider `COc1cccc(-c2ccc3c(c2)[C@H]2[C@H](CCN2C(=O)Cc2ccncc2)[C@H](CO)N3C)c1` [BRD3433, 1-((3aS,4R,9bR)-4-(hydroxymethyl)-8-(3-methoxyphenyl)-5-methyl-2,3,3a,4,5,9b-hexahydro-1H-pyrrolo[3,2-c]quinolin-1-yl)-2-(pyridin-4-yl) ethan-1-one], for which the “inhibition of SpCas9 in the HiBiT assay (in words)” value in data set [6] is “dose-dependent inhibition”. Besides, the EC50 in data set [5] (EC50, dose-dependent inhibition of SpCas9, U2OS.eGFP.PEST cells, 24 h, tested from 2.8-17.3 μM) stood at 9.3 µM; in data set [5] (eGFP-disruption assay, read-out: apparent EC50), 11 µM. Moreover, in data set [5] (eGFP-disruption assay), the “improvement in potency over BRD7087” value was 1.8 fold. For the same compound, the inhibition at 15 µM is 78.6% in data set [5] (setting [7]), 82.2% in data set [5] (setting [8]) and 74.9% in data set [5] (setting [9]).
For `CN1c2ccc(C#Cc3cccnc3)cc2[C@H]2[C@H](CCN2C(=O)Nc2cc(F)ccc2F)[C@@H]1CO` [BRD0048, (3aS,4R,9bR)—N-(2,5-difluorophenyl)-4-(hydroxymethyl)-5-methyl-8-(pyridin-3-ylethynyl)-2,3,3a,4,5,9b-hexahydro-1H-pyrrolo[3,2-c]quinoline-1-carboxamide], the EC50 in data set [2] amounted to 9 µM. For the same compound, the figures for the inhibition at 15 µM in data set [5] (setting [7]), in data set [5] (setting [8]) and in data set [5] (setting [9]) were 76.4%, 84.1% and 68.7%, respectively.
As to `COc1ccc(S(=O)(=O)N2CC[C@@H]3[C@@H](CO)N(C)c4ccc(-c5ccc(F)cc5)cc4[C@@H]32)cc1` [BRD-K16827616], in data set [5] (24 h, U2OS.eGFP.PEST cells), the “Average Inhibition activity” value worked out at 60.5, the “Inhibition activity Rep 1” value came to 76.4 and the “Inhibition activity Rep 2” value stood at 44.6.
The matching figures for `OC[C@@H]1Nc2ccc(-c3ccccc3)cc2[C@@H]2[C@H]1CCN2Cc1ccc(F)cc1` [BRD-K90247032]: 49.3, 47.6 and 51.1.
